This note sets out measurements from patent EP0112685A1, “Compounds containing beta-lactams” (BEECHAM GROUP PLC, priority 1982, dated 1984).

Each structure is given as a SMILES string.

This data set is described as follows: Blood levels in mice after oral or subcutaneous administration, assayed by biological β-lactamase inhibition-zone technique. In kind it is in vivo. Conditions: for concentration at 0.5 h: 30 mins after administration; for concentration at 0.75 h: 45 mins after administration; for concentration at 1 h: 60 mins after administration; for concentration at 1.5 h: 90 mins after administration; for concentration at 2 h: 120 mins after administration; for AUC: mice. Here is the method: The compound of Example 4 was administered either orally (by gastric lavage) or subcutaneously as a solution to groups of mice. At intervals after administration, 5 mice which had received the compound subcutaneously and 10 mice which had received the compound orally were sacrificed, and blood collected from the axillary region. The blood was assayed for content of compound 4 using a biological β-lactamase inhibition-zone assay technique. The mean values (+ standard deviation - SD) are tabulated below.

Setting [1] is: mouse, blood, sc, subcutaneous administration, 10 mg/kg, average for 5 mice.
Setting [2] is: mouse, blood, oral administration, 20 mg/kg, average for 10 mice.

Consider `O=C(O)C1C(=CCOCCCl)OC2CC(=O)N21` (stereo not shown) [Example 4, Lithium 9-0-(2-chloroethyl)clavulanate], for which the “levels in the blood of mice” value (administered by either an oral or parenteral route, result in words) was “high and prolonged levels”. Also, under “mouse, blood, sc, subcutaneous administration, 10 mg/kg, 10 mins after administration, average for 5 mice”, the concentration at 10 min was 22800 ng/mL. In addition, the concentration at 20 min (mouse, blood, sc, subcutaneous administration, 10 mg/kg, 20 mins after administration, average for 5 mice) stood at 17300 ng/mL. Under setting [1], this molecule came in with a concentration at 0.5 h of 13300 ng/mL, a concentration at 0.75 h of 7700 ng/mL, a concentration at 1 h of 5200 ng/mL and a concentration at 1.5 h of 2700 ng/mL. The concentration at 2 h under setting [1] was 1800 ng/mL. Moreover, where the note is “mouse, blood, oral administration, 20 mg/kg, 15 mins after administration, average for 10 mice”, the concentration at 0.25 h worked out at 16600 ng/mL. Also, under setting [2], the concentration at 0.5 h turned out to be 10500 ng/mL, the concentration at 0.75 h came to 7940 ng/mL, the concentration at 1 h came out at 7420 ng/mL and the concentration at 1.5 h amounted to 3910 ng/mL. Moreover, under setting [2], the concentration at 2 h is 3200 ng/mL. Moreover, the exposure (AUC) (as a rule, the area under the concentration-time curve, a measure of exposure) (mouse, sc, subcutaneous administration, 10 mg/kg, blood) turned out to be 15100 ng·h/mL. The exposure (AUC) (mouse, oral administration, 20 mg/kg, blood) was 14300 ng·h/mL.
